Results on 32 substances are retold here after US5672585A, “Method and composition for treating thrombosis” (priority 1995, dated 1997).

Where no end group is shown, it is not given here. [ ]: non-standard residue; d: D form. The star is where a group is joined. Pmc = Cc1c(C)c(S(=O)(=O)*)c(C)c2c1OC(C)(C)CC2; Pen = CC(C)(S)[C@H](N)C(=O)O

The subject of test [1] is platelets. It counts as cell-based. The note with it: for platelet aggregation potency relative to analogue 3: more potent than analogue 3; for increase in platelet aggregation potency relative to analogue 5: substitution of Leu at position 3. How it is done:
Platelet aggregation was assessed using the method of Born, Nature 194:927-929 (1962), incorporated herein by reference. Briefly, the change in light transmission was measured through a stirred suspension of platelets in an aggregometer (Model 400 VS, Chrono-Log, Hayertown, Pa., USA). […] In studies using thrombin, the PRP was gel-filtered on Sepharose 2B in divalent ion-free Tyrode's solution containing 2% BSA. For all studies, the reference standard was platelet-poor plasma, which was obtained by centrifuging PRP at 1000×g for 5 min.
All aggregation studies were performed at 37° C. with a constantly stirred suspension of 3×10^8 platelets/mL. (Platelet count was determined with the aid of a hemacytometer.) Peptides and stimulants were added to these suspensions in 1% dilutions. The PRP and gel-filtered platelets were used within three hours from the time of blood collection.
The peptides described in this Example were synthesized according to the methods of Examples I and XI. Selectivity and potency were measured according to the methods of Examples II through XI. The peptide identification numbers used in this Example are consistent and relevant to this Example only. Some of the peptides are identified by other nomenclature elsewhere in this document.

The test system of test [2] is platelets. Nature of the test: ADP-stimulated platelet aggregation in platelet-rich plasma (Table I). The note with it: read-out: ADP-Stimulated Aggregation; ADP 10 μm, citrated platelet-rich plasma, 37° C.; * concentrations unconfirmed by amino acid composition analysis.
Description: (§1) All aggregation studies were performed at 37° C. with a constantly stirred suspension of 3×10^8 platelets/ml. (Platelet count was determined with the aid of a hemacytometer.) Peptides and stimulants were added to these suspensions in 1% dilutions. The PRP and gel-filtered platelets were used within three hours from the time of blood collection.
(§2) Peptide anti-aggregation potencies were determined from dose-responsive curves for the inhibition of the maximum aggregation responses stimulated by physiologic doses of ADP (10 μm) and thrombin (2 U/ml).
Test [3] has as its system platelets. Nature of the test: Thrombin-stimulated platelet aggregation (Table I). To be noted: read-out: Thrombin Stimulated Aggregation; thrombin 2 U/ml, gel-filtered platelets, 37° C.
Description: as §1, §2
Setting [4] is: substitution of Arg at position 4.

As to (Pmp)GHRGDLRCA, the “platelet aggregation potency relative to analogue 1” value in test [1] (more potent than analogue 1) stood at 2 fold. Regarding (Pmp)GRGDTPCA, the IC50 in test [2] turned out to be 85 µM. For the substance “(t-but-am-Pmp)GHRGDLR(Pen)A [(t-but-am-P mp)GHRGDLR(Pen)A]”, the IC50 in test [2] came to 89 µM. Turning to “Ac- CNPRGD(Y--OMe)(Cit)C--NH2 [Peptide 11S]”, the “platelet aggregation potency compared with analogue 32” value in test [1] (setting [4]) is reported as “substantial decreases in platelet aggregation potency”. Consider “Ac- CNPRGD(Y--OMe)(dR)C--NH2 [Peptide 11L]”, for which the “platelet aggregation potency compared with analogue 32” value in test [1] (setting [4]) is recorded as “decrease in potency”. For the substance Ac- CNPRGD(Y--OMe)KC--NH2 [Peptide 11R], the “inhibitory activity retained relative to analogue 32” value in test [1] (setting [4]) was 20%. For the substance Ac-CIPRGD(Y-OMe)RC-NH2 [Peptide 10R], in test [1], the “increase in platelet aggregation potency relative to analogue 26” value was 3-4 fold. With “Ac-CNPRGD(O-N-Butyl-Y)RC-NH2 [Ac CNPRGD(O-n-butyl-Tyr)RC--NH2]”, the IC50 in test [2] was found to be 0.1 µM. The same measure, in the same setting: with G(Pen)FRGDSFCA the figure was above 200 µM. For G(Pen)GHRGDTRCA, the figures for the IC50 in test [2] and in test [3] were 11.3 µM and 17 µM, respectively. Consider G(Pen)GRGDRPCA, for which the IC50 in test [2] was found to be 22.3 µM. In the case of G(Pen)GRGDTPCA, the IC50 worked out at 22.3 µM in test [2] and 28 µM in test [3]. For the substance G(Pen)LRGDSPCA, the IC50 in test [2] was 415 µM; in test [3], 308 µM.

In the case of G(Pen)LRGDSRCA, the IC50 in test [2] came out at 41 µM; in test [3] it was 49 µM. G(Pen)LRGDTPCA: the IC50 in test [2] was found to be 86 µM. In the case of “G[Pen]GRGDSFCA (cysteine pairing not given here)”, the IC50 in test [2] was 115 µM. The same measure, in the same setting: with “G[Pen]YRGDSPCA (cysteine pairing not given here)” the figure was 47 µM. Still for that read-out and setting: the result for L(Pen)GHRGDLRCA reads 10.5 µM. Consider R2(Pen)GRGDTPCA, for which the IC50 in test [2] was determined as 8.2 µM; in test [3], 2.7 µM. As for R(D-Pen)GHRGDLRCR [analogue 4], the “platelet aggregation potency relative to analogue 3” value in test [1] is 2 fold. On to R(Pen)GRGDTPCA, for which the IC50 came to 7 µM in test [2] and 3.1 µM in test [3]. R(Pen)GRGDTPCK: in test [2], the IC50 is 7.6 µM. As for R(Pen)GRGDTPCR, the figures for the IC50 in test [2] and in test [3] were 6.3 µM and 2 µM, respectively. R(Pmc)GHRGDFRCR: the IC50 in test [2] was determined as 0.62 µM. In test [1], the “increase in platelet aggregation potency relative to analogue 5” value is recorded as around 5 fold. In the case of R(Pmc)GHRGDLRCR [analogue 5], in test [1], the “platelet aggregation potency relative to analogue 3” value was determined as 3 fold.

Turning to R(Pmc)GHRGDVRCR, the IC50 in test [2] was determined as 0.69 µM. In addition, the “increase in platelet aggregation potency relative to analogue 5” value in test [1] stood at 4 fold. For the substance R(Pmc)GHRGDYRCR, in test [2], the IC50 stood at 1 µM.

In the case of R(Tmc)GHRGDLRCR [analogue 7], the “platelet aggregation potency relative to analogue 3” value in test [1] was 2 fold.

On to R(orn)GHRGDLRDR, for which the IC50 in test [2] was above 200 µM.

In the case of “R[Pen]GHRGDTRCR (cysteine pairing not given here)”, in test [2], the IC50 turned out to be 8.8 µM. For “R[Pen]GRGDLRCA (cysteine pairing not given here)”, the IC50 in test [2] amounted to 16 µM; in test [3], 13 µM. With “R[Pen]GRGDSRCA (cysteine pairing not given here)”, the IC50 in test [2] and in test [3] was 12 µM throughout.
